Test results published in patent publication US5807671A (priority 1995, dated 1998).
“Also recorded” adds a separate entry of the source.

Experiments:
[1] = system: normal and "atypical" BuChE; format: biochemical, human
AChE E5 = AChE E5 (Homo sapiens, UniProt P22303); format: biochemical
BuChE normal = BuChE normal (Homo sapiens, UniProt P06276); format: biochemical
"atypical" serum BuChE = format: biochemical, human
AChE E6 = AChE E6 (Homo sapiens, UniProt P22303); format: biochemical
BuChE "atypical" = BuChE "atypical" (Homo sapiens, UniProt P06276, D98G)
AChE = format: biochemical, human
BuChE F^329 C = format: biochemical, human
[2] = system: BuChE D^70 G + Y^114 H + S^425 P; format: biochemical, human
BuChE L^286 K = BuChE L^286 K (Homo sapiens, UniProt P06276, L314K); experiment: biochemical; format: biochemical
BuChE D^70 G = format: biochemical, human
BuChE L^286 R = format: biochemical, human
[3] = target: diisopropylphosphoryl-Chimera; format: biochemical, human
BuChE D^70 G + Y^114 H = format: biochemical, human
[4] = target: diisopropylphosphoryl-AChE (E6) (Homo sapiens, UniProt P22303)
[5] = target: diisopropylphosphoryl-AChE (E5) (Homo sapiens, UniProt P22303)
BuChE F^329 D = format: biochemical, human
[6] = target: diisopropylphosphoryl-BuChE (Homo sapiens, UniProt P06276); experiment: biochemical
BuChE L^286 D = format: biochemical, human
[7] = target: purified diethylphosphoryl-BuChE; conditions: cited from earlier work
BuChE F^329 R = format: biochemical, human
[8] = human, in vivo, iv; cited from earlier work
BuChE S^425 P = format: biochemical, human
BuChE F^329 Q = format: biochemical, human
BuChE D^70 G + S^425 P = format: biochemical, human
BuChE L^286 Q = format: biochemical, human
[9] = system: ChEs (all of the examined enzymes); format: biochemical, human
normal serum BuChE = format: biochemical, human; conditions: 30 min, 10 µM
[10] = system: BuChE from heterozygous serum; format: biochemical, human; conditions: 30 min, 10 µM
REM sleep = conditions: in vivo; cited from earlier work
serum BuChE = conditions: in vivo; cited from earlier work
Alzheimer's disease [11] = conditions: in vivo; cited from earlier work
[12] = system: BuChE of heterozygotes / 1:1 mixture of normal and "atypical" BuChE
[13] = human, in vivo; cited from earlier work
serum BuChE "atypical" = serum BuChE "atypical" (Homo sapiens, UniProt P06276, D98G)
Parkinson's disease = conditions: human, in vivo; cited from earlier work
"atypical" BuChE [14] = conditions: cited from earlier work
"atypical" BuChE [15] = conditions: cited from earlier work; remark: listed apart in the source
"atypical" BuChE [16] = conditions: cited from earlier work; remark: listed apart in the source
Alzheimer's disease [17] = conditions: in vivo; cited from earlier work; remark: listed apart in the source
[18] = in vivo
"atypical" BuChE [19] = format: biochemical, human
[20] = in vivo; remark: listed apart in the source
horse serum BuChE = conditions: cited from earlier work

Chain of AChE E5 (P22303-4 with tags, fused parts or gaps limits assumed): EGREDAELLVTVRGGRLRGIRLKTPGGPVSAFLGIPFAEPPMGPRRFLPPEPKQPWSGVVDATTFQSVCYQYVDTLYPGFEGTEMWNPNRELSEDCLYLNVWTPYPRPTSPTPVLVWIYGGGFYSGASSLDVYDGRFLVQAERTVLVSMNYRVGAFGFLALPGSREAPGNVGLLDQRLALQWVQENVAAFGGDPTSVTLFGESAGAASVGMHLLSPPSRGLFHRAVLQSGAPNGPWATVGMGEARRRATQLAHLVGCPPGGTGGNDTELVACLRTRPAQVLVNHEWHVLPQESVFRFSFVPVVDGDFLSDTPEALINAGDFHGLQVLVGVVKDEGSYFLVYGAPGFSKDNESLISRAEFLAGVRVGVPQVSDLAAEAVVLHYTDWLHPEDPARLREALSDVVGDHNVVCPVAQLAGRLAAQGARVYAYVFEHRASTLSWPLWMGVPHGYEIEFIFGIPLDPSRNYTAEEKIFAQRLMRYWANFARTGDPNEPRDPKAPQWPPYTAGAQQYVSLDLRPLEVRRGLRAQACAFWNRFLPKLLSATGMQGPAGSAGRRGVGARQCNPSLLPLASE
Chain of AChE E6 (P22303 32-614): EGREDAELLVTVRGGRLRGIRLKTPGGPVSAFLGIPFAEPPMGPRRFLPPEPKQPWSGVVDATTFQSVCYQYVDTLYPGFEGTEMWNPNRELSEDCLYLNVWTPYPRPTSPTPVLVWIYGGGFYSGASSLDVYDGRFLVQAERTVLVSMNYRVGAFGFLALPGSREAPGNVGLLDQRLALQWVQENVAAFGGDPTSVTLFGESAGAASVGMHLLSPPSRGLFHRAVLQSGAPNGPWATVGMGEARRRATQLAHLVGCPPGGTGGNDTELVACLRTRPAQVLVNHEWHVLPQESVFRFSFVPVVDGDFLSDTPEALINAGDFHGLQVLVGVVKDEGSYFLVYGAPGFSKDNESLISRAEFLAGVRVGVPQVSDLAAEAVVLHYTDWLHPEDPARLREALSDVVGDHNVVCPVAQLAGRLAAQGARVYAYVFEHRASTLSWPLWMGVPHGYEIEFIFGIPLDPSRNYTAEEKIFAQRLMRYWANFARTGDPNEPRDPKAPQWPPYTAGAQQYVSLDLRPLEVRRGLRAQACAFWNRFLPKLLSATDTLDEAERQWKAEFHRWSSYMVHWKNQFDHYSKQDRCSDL
Chain of BuChE normal (P06276 29-602): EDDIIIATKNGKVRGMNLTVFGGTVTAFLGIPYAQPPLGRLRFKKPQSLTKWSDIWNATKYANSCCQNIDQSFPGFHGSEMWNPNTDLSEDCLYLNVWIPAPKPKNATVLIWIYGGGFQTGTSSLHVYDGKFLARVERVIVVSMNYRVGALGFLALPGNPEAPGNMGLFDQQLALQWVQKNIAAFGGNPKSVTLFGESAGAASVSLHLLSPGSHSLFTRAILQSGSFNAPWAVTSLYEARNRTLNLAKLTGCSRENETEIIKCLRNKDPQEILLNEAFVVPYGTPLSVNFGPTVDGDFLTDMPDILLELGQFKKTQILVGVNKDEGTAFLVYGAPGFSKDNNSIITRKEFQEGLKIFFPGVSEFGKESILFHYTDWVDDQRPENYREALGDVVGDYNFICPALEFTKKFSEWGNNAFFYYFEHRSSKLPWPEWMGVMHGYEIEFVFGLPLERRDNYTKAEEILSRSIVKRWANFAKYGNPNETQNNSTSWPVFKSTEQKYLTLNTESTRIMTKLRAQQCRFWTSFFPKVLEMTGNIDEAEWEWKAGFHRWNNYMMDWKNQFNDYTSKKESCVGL
Chain of diisopropylphosphoryl-BuChE (P06276 29-602): as above
Chain of BuChE "atypical" (P06276 29-602 D98G limits assumed): as the sequence (P06276 29-602) above, with D70G counted along it
Chain of BuChE L^286 K (P06276 29-602 L314K limits assumed): as the sequence (P06276 29-602) above, with L286K counted along it
Chain of diisopropylphosphoryl-AChE (E5) (P22303-4 with tags, fused parts or gaps limits assumed): as the sequence (P22303-4 with tags, fused parts or gaps limits assumed) above
Chain of diisopropylphosphoryl-AChE (E6) (P22303 32-614): as the sequence (P22303 32-614) above
Chain of serum BuChE "atypical" (P06276 29-602 D98G limits assumed): as the sequence (P06276 29-602) above, with D70G counted along it

CCCCCCCNC(=O)Oc1ccc2c(c1)C1(C)CCN(C)C1N2C (single isomer, unassigned) [N-heptyl physostigmine]
original activity regained [1]: 10%
second order rate constants, ki, for inactivation (AChE E5): 1.4 × 10^6
inactivation rates of common BuChE compared with AChE (BuChE normal): higher than or equal to
second order rate constants, ki, for inactivation (BuChE normal): 1.1 × 10^7 ± 0.3 × 10^7
reaction of "atypical" BuChE with carbamates, compared with its normal counterpart ("atypical" serum BuChE): much slower
second order rate constants, ki, for inactivation (AChE E6): 1.6 × 10^6
inactivation rates of "atypical" BuChE (BuChE "atypical"): considerably lower rates
second order rate constants, ki, for inactivation (BuChE "atypical"): 7.7 × 10^5 ± 4.4 × 10^5
reactivation (AChE): 5%

C[n+]1ccccc1C=NO [PAM, Pyridine-2-aldoxime methiodide]
k'r × 10^3 (BuChE F^329 C): 14 ± 2
k'r × 10^3 [2]: 4 ± 1
Kd (BuChE L^286 K): > 5000 µM
Kr × 10^3 (BuChE L^286 K): 35 ± 27
k'r × 10^3 (BuChE L^286 K): 4 ± 1
reduction in the pseudo-first order rate constant for reactivation (BuChE L^286 K): 40 fold
k'r × 10^3 (BuChE D^70 G): 32 ± 4
reactivation rate lower than wild-type BuChE (BuChE D^70 G): 5 fold
k'r × 10^3 (BuChE L^286 R): 6 ± 3
Kd [3]: 340 ± 130 µM
Kr × 10^3 [3]: 48 ± 20
k'r × 10^3 [3]: 40 ± 18
reactivation rate constant lower than that of native BuChE [3]: 5 fold
k'r × 10^3 (BuChE D^70 G + Y^114 H): 12 ± 5
Kr × 10^3 [4]: 7 ± 3
k'r × 10^3 [4]: 6 ± 2
Kr × 10^3 [5]: 10 ± 5
k'r × 10^3 [5]: 8 ± 3
k'r × 10^3 (BuChE F^329 D): 8 ± 1
Kd [6]: 300 µM
Kr × 10^3 [6]: 220 ± 60
k'r × 10^3 [6]: 150 ± 30
pseudo-first order rate constant for reactivation of DFP-inhibited BuChE, higher than AChE [6]: 25 fold
k'r × 10^3 (BuChE L^286 D): 120 ± 30
Kd [7]: 200 µM
k'r × 10^3 (BuChE F^329 R): 43
Cmax [8]: ≤ 40 µM
k'r × 10^3 (BuChE S^425 P): 134 ± 8
k'r × 10^3 (BuChE F^329 Q): 44 ± 15
k'r × 10^3 (BuChE D^70 G + S^425 P): 11
k'r × 10^3 (BuChE L^286 Q): 120 ± 20

CCN(C)C(=O)Oc1cccc([C@H](C)N(C)C)c1 [SDZ ENA-713]
reactivation levels [9]: ≤ 8%
second order rate constants, ki, for inactivation (AChE E5): 3.3 × 10^3
inactivation rates of common BuChE compared with AChE (BuChE normal): higher than or equal to
second order rate constants, ki, for inactivation (BuChE normal): 1.4 × 10^4 ± 0.3 × 10^4
reaction of "atypical" BuChE with carbamates, compared with its normal counterpart ("atypical" serum BuChE): much slower
decrease in BuChE activity ("atypical" serum BuChE; serum, 30 min, 10 µM): about 40%
loss of BuChE activity (normal serum BuChE): 95%
second order rate constants, ki, for inactivation (AChE E6): 4.3 × 10^3
inactivation rates of "atypical" BuChE (BuChE "atypical"): considerably lower rates
second order rate constants, ki, for inactivation (BuChE "atypical"): 4.7 × 10^2 ± 4.6 × 10^2
loss of BuChE activity [10]: 80%
frequency of rapid eye movements during REM sleep (REM sleep): increase the frequency of rapid eye movements during REM sleep
serum BuChE activity (serum BuChE): transient drop in serum BuChE activity

Nc1c2c(nc3ccccc13)CCCC2 [Tacrine, 1,2,3,4-tetrahydro-9 aminoacridine]
improvement in Alzheimer's disease patients (Alzheimer's disease [11]): statistically significant, dose-related improvements
inhibition curves of mixtures of normal and "atypical" enzyme [12]: expected intermediary inhibition curves
inhibition in the presence of 1 μm tacrine [12]: intermediate levels of activity
cases in which aminotransferase reached 20 times the upper limit of normal [13]: 2%
patients with severe cholinergic side-effects [13]: over 10%
serum alanine aminotransferase level in 2% of the cases [13]: 20 times the upper limit of normal
serum alanine aminotransferase level, usually [13]: less than three times the upper limit of normal value
capacity of "atypical" BuChE to interact with tacrine, compared with the normal enzyme (serum BuChE "atypical"): drastic reduction
symptoms of PD patient (Parkinson's disease): worsening of the symptoms
serum BuChE activity (serum BuChE): transient drop in serum BuChE activity

CC(=O)Oc1ccccc1C(=O)O [aspirin]
Km with "atypical" variant, higher than with usual enzyme ("atypical" BuChE [14]): ~4 fold

CN(C)C(=O)Oc1cc(OC(=O)N(C)C)cc(C(O)CNC(C)(C)C)c1 (stereo not shown) [bambuterol]
IC50, higher for "atypical" than wild-type BuChE ("atypical" BuChE [15]): at least 10 fold
Ki, higher for "atypical" than wild-type BuChE ("atypical" BuChE [15]): at least 10 fold

CCCCOc1cc(C(=O)NCCN(CC)CC)c2ccccc2n1 [dibucaine]
hydrolysis by "atypical" BuChE ("atypical" BuChE [16]): inability of the affected enzyme to hydrolyze

CC(=O)Oc1ccc2c3c1O[C@H]1[C@@H](OC(C)=O)C=C[C@H]4[C@@H](C2)N(C)CC[C@@]341 [heroin]
Km with "atypical" variant, higher than with usual enzyme ("atypical" BuChE [14]): 4 fold

CC(C)NP(=O)(NC(C)C)OP(=O)(NC(C)C)NC(C)C [iso-OMPA]
sensitivity of the atypical variant to inhibitors ("atypical" BuChE [15]): much less sensitive

CNC(=O)Oc1ccc2c(c1)[C@]1(C)CCN(C)[C@@H]1N2C [physostigmine]
IC50, higher for "atypical" than wild-type BuChE ("atypical" BuChE [15]): at least 10 fold
Ki, higher for "atypical" than wild-type BuChE ("atypical" BuChE [15]): at least 10 fold
sensitivity of the atypical variant to inhibitors ("atypical" BuChE [15]): much less sensitive
inactivation rates of common BuChE compared with AChE (BuChE normal): higher than or equal to
second order rate constants, ki, for inactivation (BuChE normal): 3.8 × 10^5 ± 1.6 × 10^5
reaction of "atypical" BuChE with carbamates, compared with its normal counterpart ("atypical" serum BuChE): much slower
effect on cognitive functions (Alzheimer's disease [17]): small, short-term positive effect on cognitive functions
inactivation rates of "atypical" BuChE (BuChE "atypical"): considerably lower rates
second order rate constants, ki, for inactivation (BuChE "atypical"): 2.6 × 10^4 ± 0.9 × 10^4
spontaneous reactivation (AChE): up to 90%

CCN(CC)CCOC(=O)c1ccc(N)cc1 [procaine]
Km with "atypical" variant, higher than with usual enzyme ("atypical" BuChE [14]): 15 fold

CN(C)C(=O)Oc1ccc[n+](C)c1 [pyridostigmine]
reactivation [1]: 10%
adverse symptoms under pyridostigmine [18]: insomnia, weight loss and general fatigue, which worsened consistently, and a deep depression
second order rate constants, ki, for inactivation (AChE E5): 2.5 × 10^4
second order rate constants, ki, for inactivation (BuChE normal): 1.9 × 10^3 ± 0.2 × 10^3
reaction of "atypical" BuChE with carbamates, compared with its normal counterpart ("atypical" serum BuChE): much slower
second order rate constants, ki, for inactivation (AChE E6): 2.2 × 10^4
reactivation (AChE): 50%

C[N+](C)(C)CCOC(=O)CCC(=O)OCC[N+](C)(C)C [succinylcholine]
hydrolysis by serum BuChE of H. K. ("atypical" BuChE [19]): totally incapable of hydrolyzing; also recorded: cannot hydrolyze
hydrolysis by "atypical" BuChE ("atypical" BuChE [16]): unable to hydrolyze; also recorded: inability of the affected enzyme to hydrolyze
post-anesthesia apnea [20]: two hour post-anesthesia apnea
hydrolysis by horse serum BuChE (horse serum BuChE): will not hydrolyze
